Results as given in PubChem BioAssay AID2060605 (Molecular Pharmacology Branch, DTP, NCI, 2025).

System: 947758-054-R-J2-PDC spheroid growth, percent test/control
Test: Anticancer human tumor 947758-054-R-J2-PDC patient-derived colon adenocarcinoma cell line growth inhibition [CLK]
Conditions: spheroids with HUVEC and MSC; for IC50: curve of first compound; for viability, T/C: stronger effect = lower value
Summary of the method: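 Multi-cell-type spheroids combined patient-derived tumor cells with HUVEC endothelial cells and human mesenchymal stem cells. Paired agents were dosed in half-log steps down from about clinical Cmax, or from 10 microM where Cmax was unknown.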

[1] = second compound 0.0316 µM, first compound 0.0316 µM
[2] = second compound 0.0316 µM, first compound 0.1 µM
[3] = second compound 0.0316 µM, first compound 0.316 µM
[4] = second compound 0.0316 µM, first compound 1 µM
[5] = second compound 0.1 µM, first compound 0.0316 µM
[6] = second compound 0.1 µM, first compound 0.1 µM
[7] = second compound 0.1 µM, first compound 0.316 µM
[8] = second compound 0.1 µM, first compound 1 µM
[9] = second compound 0.316 µM, first compound 0.0316 µM
[10] = second compound 0.316 µM, first compound 0.1 µM
[11] = second compound 0.316 µM, first compound 0.316 µM
[12] = second compound 0.316 µM, first compound 1 µM
[13] = second compound 1 µM, first compound 0.0316 µM
[14] = second compound 1 µM, first compound 0.1 µM
[15] = second compound 1 µM, first compound 0.316 µM
[16] = second compound 1 µM, first compound 1 µM
[17] = second compound 3.16 µM, first compound 0.0316 µM
[18] = second compound 3.16 µM, first compound 0.1 µM
[19] = second compound 3.16 µM, first compound 0.316 µM
[20] = second compound 3.16 µM, first compound 1 µM
[21] = second compound 10 µM, first compound 0.0316 µM
[22] = second compound 10 µM, first compound 0.1 µM
[23] = second compound 10 µM, first compound 0.316 µM
[24] = second compound 10 µM, first compound 1 µM
[25] = second compound 0.0316 µM, first compound 0.00316 µM
[26] = second compound 0.0316 µM, first compound 0.01 µM
[27] = second compound 0.1 µM, first compound 0.00316 µM
[28] = second compound 0.1 µM, first compound 0.01 µM
[29] = second compound 0.316 µM, first compound 0.00316 µM
[30] = second compound 0.316 µM, first compound 0.01 µM
[31] = second compound 1 µM, first compound 0.00316 µM
[32] = second compound 1 µM, first compound 0.01 µM
[33] = second compound 3.16 µM, first compound 0.00316 µM
[34] = second compound 3.16 µM, first compound 0.01 µM
[35] = second compound 10 µM, first compound 0.00316 µM
[36] = second compound 10 µM, first compound 0.01 µM
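Further: spheroids exposed to compounds for one week before readout.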
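Wherever viability, T/C is given: 100% = DMSO vehicle control wells.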

`CC(Nc1ccc2c(c1)OCCn1cc(N3C(=O)OCC3C(F)F)nc1-2)C(N)=O` (stereo unspecified) + CN1CCN(c2cc(C(=O)Nc3cc4cc(-c5cnn(C)c5)ccc4cn3)ccn2)CC1 gave an IC50 (second compound 0.0316 µM) greater than 10000 nM, an IC50 (second compound 0.1 µM) of 297 nM and an IC50 (second compound 0.316 µM) of less than 31.6 nM. It also gave an IC50 (second compound 1 µM) of less than 31.6 nM, an IC50 (second compound 3.16 µM) of less than 31.6 nM and an IC50 (second compound 10 µM) of less than 31.6 nM. It also gave a viability, T/C [1] of 138%, a viability, T/C [2] of 153% and a viability, T/C [3] of 137%. For the same molecule, the viability, T/C [4] was 88.2%, the viability, T/C (second compound 0.0316 µM, first compound 3.16 µM) was 94.5% and the viability, T/C (second compound 0.0316 µM, first compound 10 µM) was 74.2%. It also gave a viability, T/C [5] of 165%, a viability, T/C [6] of 127% and a viability, T/C [7] of 45.4%. The viability, T/C [8] was 39.6%, the viability, T/C (second compound 0.1 µM, first compound 3.16 µM) was 44.5% and the viability, T/C (second compound 0.1 µM, first compound 10 µM) was 29.6%. For the same molecule, the viability, T/C [9] was 5.46%, the viability, T/C [10] was 4.48% and the viability, T/C [11] was 4.7%. The viability, T/C [12] was 3.14%, the viability, T/C (second compound 0.316 µM, first compound 3.16 µM) was 3.86% and the viability, T/C (second compound 0.316 µM, first compound 10 µM) was 1.64%. For the same molecule, the viability, T/C [13] was 0.13%, the viability, T/C [14] was 0.18% and the viability, T/C [15] was 0.13%. The viability, T/C [16] was 0.11%, the viability, T/C (second compound 1 µM, first compound 3.16 µM) was 0.11% and the viability, T/C (second compound 1 µM, first compound 10 µM) was 0.2%. The viability, T/C [17] was 0.24%, the viability, T/C [18] was 0.19% and the viability, T/C [19] was 0.25%. It also gave a viability, T/C [20] of 0.22%, a viability, T/C (second compound 3.16 µM, first compound 3.16 µM) of 0.31% and a viability, T/C (second compound 3.16 µM, first compound 10 µM) of 0.26%. It also gave a viability, T/C [21] of 0.35%, a viability, T/C [22] of 0.5% and a viability, T/C [23] of 0.84%. For the same molecule, the viability, T/C [24] was 0.31%, the viability, T/C (second compound 10 µM, first compound 3.16 µM) was 1.57% and the viability, T/C (second compound 10 µM, first compound 10 µM) was 0.63%.

With `CCN1CCN(Cc2ccc(Nc3ncc(F)c(-c4cc(F)c5nc(C)n(C(C)C)c5c4)n3)nc2)CC1` + CN1CCN(c2cc(C(=O)Nc3cc4cc(-c5cnn(C)c5)ccc4cn3)ccn2)CC1 the IC50 (second compound 0.0316 µM) was greater than 1000 nM, the IC50 (second compound 0.1 µM) was 461 nM and the IC50 (second compound 0.316 µM) was less than 3.16 nM. It also gave an IC50 (second compound 1 µM) of less than 3.16 nM, an IC50 (second compound 3.16 µM) of less than 3.16 nM and an IC50 (second compound 10 µM) of less than 3.16 nM. For the same molecule, the viability, T/C [25] was 145%, the viability, T/C [26] was 133% and the viability, T/C [1] was 176%. The viability, T/C [2] was 245%, the viability, T/C [3] was 98.2% and the viability, T/C [4] was 46.5%. The viability, T/C [27] was 134%, the viability, T/C [28] was 141% and the viability, T/C [5] was 105%. The viability, T/C [6] was 108%, the viability, T/C [7] was 52.7% and the viability, T/C [8] was 32.8%. The viability, T/C [29] was 4.74%, the viability, T/C [30] was 7.5% and the viability, T/C [9] was 5.93%. The viability, T/C [10] was 9.21%, the viability, T/C [11] was 14.7% and the viability, T/C [12] was 13.2%. The viability, T/C [31] was 0.18%, the viability, T/C [32] was 2.83% and the viability, T/C [13] was 0.19%. It also gave a viability, T/C [14] of 0.19%, a viability, T/C [15] of 0.18% and a viability, T/C [16] of 2.66%. For the same molecule, the viability, T/C [33] was 0.83%, the viability, T/C [34] was 0.69% and the viability, T/C [17] was 0.21%. The viability, T/C [18] was 0.28%, the viability, T/C [19] was 2.63% and the viability, T/C [20] was 3.69%. For the same molecule, the viability, T/C [35] was 0.27%, the viability, T/C [36] was 1.7% and the viability, T/C [21] was 0.31%. The viability, T/C [22] was 0.4%, the viability, T/C [23] was 0.75% and the viability, T/C [24] was 2.67%.

`COc1c(OCCCN2CCOCC2)ccc2c3n(c(=NC(=O)c4cnc(N)nc4)nc12)CCN3` + CN1CCN(c2cc(C(=O)Nc3cc4cc(-c5cnn(C)c5)ccc4cn3)ccn2)CC1 was tested, and the IC50 (second compound 0.0316 µM) was 184 nM, the IC50 (second compound 0.1 µM) was 29 nM and the IC50 (second compound 0.316 µM) was less than 3.16 nM. For the same molecule, the IC50 (second compound 1 µM) was less than 3.16 nM, the IC50 (second compound 3.16 µM) was less than 3.16 nM and the IC50 (second compound 10 µM) was less than 3.16 nM. For the same molecule, the viability, T/C [25] was 157%, the viability, T/C [26] was 133% and the viability, T/C [1] was 90.8%. It also gave a viability, T/C [2] of 75.6%, a viability, T/C [3] of 28.7% and a viability, T/C [4] of 18.1%. It also gave a viability, T/C [27] of 188%, a viability, T/C [28] of 147% and a viability, T/C [5] of 40.3%. For the same molecule, the viability, T/C [6] was 33.4%, the viability, T/C [7] was 17.9% and the viability, T/C [8] was 10%. The viability, T/C [29] was 7.04%, the viability, T/C [30] was 6.09% and the viability, T/C [9] was 3.95%. The viability, T/C [10] was 2.44%, the viability, T/C [11] was 0.75% and the viability, T/C [12] was 1%. For the same molecule, the viability, T/C [31] was 0.16%, the viability, T/C [32] was 0.18% and the viability, T/C [13] was 0.15%. It also gave a viability, T/C [14] of 0.1%, a viability, T/C [15] of 1.96% and a viability, T/C [16] of 1.55%. The viability, T/C [33] was 0.48%, the viability, T/C [34] was 0.95% and the viability, T/C [17] was 0.19%. It also gave a viability, T/C [18] of 0.15%, a viability, T/C [19] of 1.63% and a viability, T/C [20] of 2.02%. It also gave a viability, T/C [35] of 0.31%, a viability, T/C [36] of 3.4% and a viability, T/C [21] of 0.32%. The viability, T/C [22] was 0.27%, the viability, T/C [23] was 1.44% and the viability, T/C [24] was 1.28%.
